Test results as given in US20250230193A1, “CYCLIC COMPOUND HAVING SELECTIVE KRAS INHIBITORY EFFECT ON HRAS AND NRAS” (CHUGAI SEIYAKU KABUSHIKI KAISHA, priority 2022, published 2025).
Where a SMILES comes first, the peptide text is derived from it. Bridges are numbered along the chain shown (N, C = ends). [ ]: non-standard residue; d: D form. hPhe(3-Cl-4-CF3) = N[C@@H](CCc1ccc(C(F)(F)F)c(Cl)c1)C(=O)O; NPrPhe(4-CF3) = CCCN[C@@H](Cc1ccc(C(F)(F)F)cc1)C(=O)O; NMeGly(cPent) = CN[C@H](C(=O)O)C1CCCC1; NMeD = CN[C@@H](CC(=O)O)C(=O)O; NMeL = CN[C@@H](CC(C)C)C(=O)O; Ac4c = NC1(C(=O)O)CCC1; NEtG = CCNCC(=O)O; Sar = CNCC(=O)O

How the values were obtained:
[1] = biological target: GDP-bound HRAS wild-type protein (Homo sapiens, UniProt P01112); assay: Binding to HRAS by surface plasmon resonance (SPR), Single Cycle Kinetics
[2] = biological target: GDP-bound NRAS wild-type protein (Homo sapiens, UniProt P01111); assay: Binding to NRAS by surface plasmon resonance (SPR), Single Cycle Kinetics
[3] = KD ratio, GDP-bound HRAS wild-type vs GDP-bound KRAS wild-type, SPR
[4] = KD ratio, GDP-bound NRAS wild-type vs GDP-bound KRAS wild-type, SPR
[5] = SPR, GDP-bound wild-type proteins

Sequence of GDP-bound HRAS wild-type protein (P01112 whole entry): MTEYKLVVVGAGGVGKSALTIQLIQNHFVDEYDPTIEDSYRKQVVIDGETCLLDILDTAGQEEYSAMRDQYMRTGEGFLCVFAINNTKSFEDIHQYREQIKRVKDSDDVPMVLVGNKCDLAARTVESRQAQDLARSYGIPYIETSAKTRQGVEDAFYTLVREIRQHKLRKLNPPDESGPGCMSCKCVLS
Sequence of GDP-bound NRAS wild-type protein (P01111 whole entry): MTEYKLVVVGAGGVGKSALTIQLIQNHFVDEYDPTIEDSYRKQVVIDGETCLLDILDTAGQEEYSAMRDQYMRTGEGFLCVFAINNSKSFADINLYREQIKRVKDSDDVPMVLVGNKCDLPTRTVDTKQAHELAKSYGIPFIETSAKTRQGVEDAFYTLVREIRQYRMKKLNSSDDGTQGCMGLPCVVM

`CCCN(C)C(=O)[C@@H]1CC(=O)N(C)[C@@H](CC)C(=O)N[C@@H]([C@@H](C)CC)C(=O)N(C)CC(=O)N(C)[C@H]2C/C=C\CCN(C2=O)[C@@H](Cc2ccc(C(F)(F)F)cc2)C(=O)N(C)CC(=O)N[C@@H](CCc2cc(F)c(C(F)(F)F)c(F)c2)C(=O)N2CC[C@H]2C(=O)NC2(CCC2)C(=O)N(C)[C@@H](C2CCCC2)C(=O)N1C` [PP2915] was tested, and the “HRAS/KRAS (ratio of KD value with respect to GDP-bound HRAS wild-type protein to KD value with respect to KRAS)” value ([1]; class symbols) was “A (a compound having 10 or more and less than 20 is denoted as A)” and the “NRAS/KRAS (ratio of KD value with respect to GDP-bound NRAS wild-type protein to KD value with respect to KRAS)” value ([2]; class symbols) was “A (a compound having 10 or more and less than 20 is denoted as A)”.

With `CCCN1C(=O)CN(C)C(=O)CN(CC)C(=O)[C@H]([C@@H](C)CC)NC(=O)[C@H](CC(C)C)N(C)C(=O)C[C@@H](C(=O)N(C)C)N(C)C(=O)[C@H](C2CCCC2)N(C)C(=O)C2(CCC2)NC(=O)[C@@H]2CCCN2C(=O)[C@H](CCc2ccc(C(F)(F)F)c(Cl)c2)NC(=O)CN(C)C(=O)[C@@H]1Cc1ccc(C(F)(F)F)cc1` [PP0424] ([NMeL]I[NEtG][Sar][NPrPhe(4-CF3)][Sar][hPhe(3-Cl-4-CF3)]P[Ac4c][NMeGly(cPent)][NMeD]-NMe2; lactam N-11) the “HRAS/KRAS (ratio of KD value with respect to GDP-bound HRAS wild-type protein to KD value with respect to KRAS)” value ([1]; SPR) was “C (A compound having a KD ratio of 0.1 or more and less than 3 is denoted as C)” and the “NRAS/KRAS (ratio of KD value with respect to GDP-bound NRAS wild-type protein to KD value with respect to KRAS)” value ([2]; SPR) was “B (a compound having 3 or more and less than 10 is denoted as B)”.

For `CCC[C@H]1C(=O)N[C@@H]([C@@H](C)CC)C(=O)N(C2CC2)CC(=O)N(C)[C@H]2C/C=C\CCN(C2=O)[C@@H](Cc2ccc(C)cc2)C(=O)N(C)CC(=O)N[C@@H](CCc2ccc(Cl)c(Cl)c2)C(=O)N2C[C@H](OCC)C[C@H]2C(=O)NC2(CC(C)(C)C2)C(=O)N(C)[C@@H](C2CCCC2)C(=O)N(C)[C@H](C(=O)N(C)C)CC(=O)N1C` [PP2559], the “HRAS/KRAS (ratio of KD value with respect to GDP-bound HRAS wild-type protein to KD value with respect to KRAS)” value ([1]; class symbols) was “A (a compound having 10 or more and less than 20 is denoted as A)” and the “NRAS/KRAS (ratio of KD value with respect to GDP-bound NRAS wild-type protein to KD value with respect to KRAS)” value ([2]; class symbols) was “A (a compound having 10 or more and less than 20 is denoted as A)”.

`CCC[C@H]1C(=O)N[C@@H]([C@@H](C)CC)C(=O)N(C)CC(=O)N(C)[C@H]2C/C=C\CCN(C2=O)[C@@H](Cc2ccc(C(F)(F)F)cc2)C(=O)N(C)CC(=O)N[C@@H](CCc2ccc(C(F)(F)F)c(Cl)c2)C(=O)N2C[C@H](OCC)C[C@H]2C(=O)NC2(CC(C)(C)C2)C(=O)N(C)[C@@H](C2CCCC2)C(=O)N(C)[C@H](C(=O)N(C)C)CC(=O)N1C` [PP1748] was tested, and the “HRAS/KRAS (ratio of KD value for HRAS to KD value for KRAS)” value [1, 3] was “B (a compound having 3 or more and less than 10 is denoted as B)” and the “NRAS/KRAS (ratio of KD value for NRAS to KD value for KRAS)” value [2, 4] was “A (a compound having 10 or more and less than 20 is denoted as A)”.

`CCO[C@@H]1C[C@H]2C(=O)NC3(CC(F)(F)C3)C(=O)N(C)[C@@H](C3CCCC3)C(=O)N(C)[C@H](C(=O)N3CCOCC3)CC(=O)N(C)[C@@H](CC(C)C)C(=O)N[C@@H]([C@@H](C)CC)C(=O)N(C)CC(=O)N(C)[C@H]3C[C@H]4C[C@H]4CN(C3=O)[C@@H](Cc3ccc(C(F)(F)F)cc3)C(=O)N(C)CC(=O)N[C@@H](CCc3cc(F)c(C(F)(F)F)c(F)c3)C(=O)N2C1` [PP0831] was tested, and the “HRAS/KRAS (ratio of KD value with respect to HRAS to KD value with respect to KRAS)” value [1, 3] was “C (A compound having a KD ratio of 0.1 or more and less than 3 is denoted as C)” and the “NRAS/KRAS (ratio of KD value with respect to NRAS to KD value with respect to KRAS)” value [2, 4] was “C (A compound having a KD ratio of 0.1 or more and less than 3 is denoted as C)”.

With `CCO[C@@H]1C[C@H]2C(=O)NC3(CC(C)(C)C3)C(=O)N(C)[C@@H](C(CC)CC)C(=O)N(C)[C@H](C(=O)N(C)C)CC(=O)N(C)[C@@H](COC)C(=O)N[C@@H]([C@@H](C)CC)C(=O)N(C)CC(=O)N(C)[C@H]3C/C=C\CCN(C3=O)[C@@H](CC3CCC(F)(F)CC3)C(=O)N(C)CC(=O)N[C@@H](CCc3cc(F)c(C(F)(F)F)c(F)c3)C(=O)N2C1` [PP2440] the “HRAS/KRAS (ratio of KD value with respect to HRAS to KD value with respect to KRAS)” value ([1]; SPR, GDP-bound HRAS wild-type vs GDP-bound KRAS wild-type) was “A (a compound having 10 or more and less than 20 is denoted as A)” and the “NRAS/KRAS (ratio of KD value with respect to NRAS to KD value with respect to KRAS)” value ([2]; SPR, GDP-bound NRAS wild-type vs GDP-bound KRAS wild-type) was “A (a compound having 10 or more and less than 20 is denoted as A)”.

In the case of `CCC[C@H]1C(=O)N[C@@H]([C@@H](C)CC)C(=O)N(C)CC(=O)N(C)[C@H]2C/C=C\CCN(C2=O)[C@@H](Cc2ccc(C)cc2)C(=O)N(C)CC(=O)N[C@@H](CCc2ccc(C(F)(F)F)c(OC)c2)C(=O)N2CC3(CC3)C[C@H]2C(=O)NC2(CC(C)(C)C2)C(=O)N(C)[C@@H](CC(F)(F)F)C(=O)N(C)[C@H](C(=O)N(C)C)CC(=O)N1C` [PP3012], the “HRAS/KRAS (ratio of KD value with respect to GDP-bound HRAS wild-type protein to KD value with respect to KRAS)” value [1, 5] is reported as “A (a compound having 10 or more and less than 20 is denoted as A)” and the “NRAS/KRAS (ratio of KD value with respect to GDP-bound NRAS wild-type protein to KD value with respect to KRAS)” value [2, 5] is reported as “A (a compound having 10 or more and less than 20 is denoted as A)”.
